Laboratory results published in patent US20240207421A1, “NERVE TARGETING PEPTIDES AND METHODS OF USE” (ALUME BIOSCIENCES, INC., priority 2020, published 2024).

Each substance was assayed on Human MPZ (assay: Phage display library screening (Example 2, Python script analysis), binding to Human MPZ). Conditions: combined unique sequence count, Python/R script analysis.
Procedure: (§1) Phage display library screens were used to identify peptides that bind to target proteins (including specific laminin trimers) that are expressed in human nerves, as described in Table 3. These screens were also carried out to identify peptides that could bind selectively to nerves versus muscle. Such peptides could therefore be useful for systemic in-vivo labeling of nerves during fluorescence assisted surgery. Specifically, m 13 phage libraries expressing 7 or 12 random amino acid peptides, or a cyclic peptide CX7C, on the N-terminus of the minor coat protein pIII (New England Biolabs; NEB) were processed through multiple rounds of selection for binding to target proteins expressed in nerves, or to excised human nerves, nerve extracts, or muscle, as described further below.
(§2) For screening against the specified target proteins in Table 1, including LN211, LN411, LN421, and LN521, the phage library was processed by up to 4 binding and wash cycles. For selection, phage libraries were incubated for up to 24 hours at 4° C. in 96 well plates that had been coated with one of the target proteins. Plates were then washed with PBS and phage were eluted using 0.2M glycine pH 2.0. Phage supernatants where then neutralized with Tris pH 9.0 prior to plating on TGI bacteria and LB agar plates. Colonies were counted to determine titer followed by DNA preparation of pools of phage and NextGen sequencing. After rounds of selection, phage were pooled and amplified for iterative selection. Phage that were bound at each round were sequenced. NextGen sequencing of pools after 2, 3 and 4 rounds of selection was used to isolate candidate sequences that were analyzed further to identify those that specifically bound each unique target protein.
(§3) Python Script Analysis: For all NEB sequence datasets, a python script was used to translate, trim, and filter the peptide sequences. The script translated the nucleotide sequences, translating amber codons as glutamine in peptide sequences, and then trimmed the end sequences that come from the vector. Secondly, the script combined the unique counts of trimmed peptides with identical sequences. […] Another python script was used to group peptides from different assays according to protein target (Myelin Protein Zero, Myelin Proteolipid Protein, Myelin Basic Protein, and Nidogen-2) and also combine the unique sequence counts for each peptide. An R script was written to merge the peptide sequences from different data files and determine peptides specific for each protein target but absent from different protein binding datasets. Peptide sequences were ranked by unique sequence count.

Chain of Human MPZ (P25189 30-153 limits assumed): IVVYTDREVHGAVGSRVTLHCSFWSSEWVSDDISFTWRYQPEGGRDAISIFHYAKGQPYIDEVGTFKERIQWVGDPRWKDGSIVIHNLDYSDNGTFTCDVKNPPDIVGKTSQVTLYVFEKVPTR

Row | Substance | Count
1 | EGHVWSEYTWGT (Human MPZ-binding peptide) | 37
2 | WTSVATA (Human MPZ-binding peptide) | 41
3 | LPNANNL (Human MPZ-binding peptide) | 41
4 | FSTTGRG (Human MPZ-binding peptide) | 39
5 | GPVVSGM (Human MPZ-binding peptide) | 46
6 | SAHSVVE (Human MPZ-binding peptide) | 38
7 | AMSNLSY (Human MPZ-binding peptide) | 45
8 | CQKWFTFAC (Human MPZ-binding peptide) | 39

The substances below were run on Human Myelin PLP (assay: Phage display library screening (Example 2, Python script analysis), binding to Human Myelin PLP). Conditions: combined unique sequence count, Python/R script analysis.
Procedure: as §1, §2, §3

Row | Substance | Count
9 | EKSTTVA (Myelin PLP-binding peptide) | 30
10 | EVLYPNN (Myelin PLP-binding peptide) | 27
11 | TFPERLR (Myelin PLP-binding peptide) | 31
12 | VSASWMP (Myelin PLP-binding peptide) | 27
13 | TGISSTP (Myelin PLP-binding peptide) | 27
14 | VTPNKAR (Myelin PLP-binding peptide) | 26
15 | AQASSAR (Myelin PLP-binding peptide) | 27
16 | RLQPEPT (Myelin PLP-binding peptide) | 33
17 | SVVYQNS (Myelin PLP-binding peptide) | 26
18 | GWSTAIR (Myelin PLP-binding peptide) | 29
19 | FRIDKSM (Myelin PLP-binding peptide) | 26
20 | LPVKNLL (Myelin PLP-binding peptide) | 26
21 | IDRVRGL (Myelin PLP-binding peptide) | 29
22 | YSDTYKH (Myelin PLP-binding peptide) | 30
23 | SLPSLLP (Myelin PLP-binding peptide) | 26
24 | TMPIKAM (Myelin PLP-binding peptide) | 27
25 | TTTIADM (Myelin PLP-binding peptide) | 26
26 | WSPHRSF (Myelin PLP-binding peptide) | 31
27 | GSAWKKH (Myelin PLP-binding peptide) | 44
28 | AVVAMNK (Myelin PLP-binding peptide) | 28
29 | IHHLESS (Myelin PLP-binding peptide) | 32

Row | Substance | Count
30 | AHQSSVT (Myelin PLP-binding peptide) | 42
31 | GKSYSQI (Myelin PLP-binding peptide) | 31
32 | WNTADRL (Myelin PLP-binding peptide) | 34
33 | TLWAQKT (Myelin PLP-binding peptide) | 28
34 | IRPTHNG (Myelin PLP-binding peptide) | 27
35 | LMQKPSI (Myelin PLP-binding peptide) | 29
36 | LHQTYRP (Myelin PLP-binding peptide) | 27
37 | EPSSFTF (Myelin PLP-binding peptide) | 31
38 | LPSHASI (Myelin PLP-binding peptide) | 26
39 | NDASTVS (Myelin PLP-binding peptide) | 28
40 | FSLDRDG (Myelin PLP-binding peptide) | 29
41 | TQPRYPS (Myelin PLP-binding peptide) | 28
42 | GIPSSKN (Myelin PLP-binding peptide) | 28
43 | NVFSATP (Myelin PLP-binding peptide) | 31
44 | HLHTRPT (Myelin PLP-binding peptide) | 27
45 | SGLHYAL (Myelin PLP-binding peptide) | 32
46 | SALISTR (Myelin PLP-binding peptide) | 32
47 | WSPHGYK (Myelin PLP-binding peptide) | 27
48 | SAQSRSF (Myelin PLP-binding peptide) | 26
49 | ARFVPLT (Myelin PLP-binding peptide) | 30
50 | VFPERRV (Myelin PLP-binding peptide) | 28

Row | Substance | Count
51 | LNGISAL (Myelin PLP-binding peptide) | 32
52 | VGYRSAS (Myelin PLP-binding peptide) | 28
53 | LPLRLHA (Myelin PLP-binding peptide) | 31
54 | SVEKYSK (Myelin PLP-binding peptide) | 33
55 | QRRSVIL (Myelin PLP-binding peptide) | 31
56 | ASLTLAL (Myelin PLP-binding peptide) | 26
57 | YSSRLTA (Myelin PLP-binding peptide) | 29
58 | YSQAISA (Myelin PLP-binding peptide) | 27
59 | SVMWMTP (Myelin PLP-binding peptide) | 29
60 | SVLPDKL (Myelin PLP-binding peptide) | 28
61 | DGSRDLV (Myelin PLP-binding peptide) | 30
62 | NIPSSIL (Myelin PLP-binding peptide) | 33
63 | VRTSMNH (Myelin PLP-binding peptide) | 28
64 | VTGPGTP (Myelin PLP-binding peptide) | 26
65 | YTWTPSR (Myelin PLP-binding peptide) | 28
66 | SWDVLEL (Myelin PLP-binding peptide) | 31
67 | WSRISVD (Myelin PLP-binding peptide) | 26
68 | QLPRNNL (Myelin PLP-binding peptide) | 28
69 | TKITPHR (Myelin PLP-binding peptide) | 29
70 | LPHRLNP (Myelin PLP-binding peptide) | 27
71 | HKAPLGT (Myelin PLP-binding peptide) | 29

Row | Substance | Count
72 | KPSASIY (Myelin PLP-binding peptide) | 26
73 | SGVATYT (Myelin PLP-binding peptide) | 31
74 | SLNRGGA (Myelin PLP-binding peptide) | 28
75 | MPHAPVQ (Myelin PLP-binding peptide) | 37
76 | MKIMPMD (Myelin PLP-binding peptide) | 26
77 | SLPGYRH (Myelin PLP-binding peptide) | 28
78 | WHYTPSM (Myelin PLP-binding peptide) | 26
79 | GLWGPSL (Myelin PLP-binding peptide) | 26
80 | ALFQERK (Myelin PLP-binding peptide) | 27
81 | KGVIPAT (Myelin PLP-binding peptide) | 27
82 | GNVFQTS (Myelin PLP-binding peptide) | 31
83 | TRASYPQ (Myelin PLP-binding peptide) | 32
84 | VSSQEQA (Myelin PLP-binding peptide) | 34
85 | QPNMLKP (Myelin PLP-binding peptide) | 33
86 | GHLQSLF (Myelin PLP-binding peptide) | 26
87 | DRHEGHR (Myelin PLP-binding peptide) | 26
88 | FSTPTNV (Myelin PLP-binding peptide) | 29
89 | IIPPTSV (Myelin PLP-binding peptide) | 31
90 | TDVEMVP (Myelin PLP-binding peptide) | 40
91 | GPAAVII (Myelin PLP-binding peptide) | 29

The substances below were run on Laminin 421/521 (assay: Phage display library screening (Example 2), NEB laminin-binding peptides). Conditions: Laminin 421/521, not 211 and 411; combined unique sequence count, Python/R script analysis.
Parameters: species or system human
How it was run: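 M13 phage libraries (7- or 12-mer random or cyclic CX7C peptides on pIII) panned up to 4 rounds against plate-coated laminins LN211, LN411, LN421, LN521, 24 h at 4 °C; elution with 0.2M glycine pH 2.0. NextGen sequencing of pools after rounds 2–4; peptides binding 421/521 but not 211/411 identified.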

Row | Substance | Count
92 | EGHVWSEYTWGT (Human MPZ-binding peptide) | 50
